{"source": "patent US6737383B1", "about": "“Herbicidal oxadiazolidines” (priority 1999, dated 2004)", "key": {"soybean": {"test_system": "soybean", "assay": "Test B pre/postemergence soybean", "format": "in vivo, Glycine max", "conditions": "Preemergence", "how_it_was_run": "(§1)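 Response is a visual 0-to-10 score relative to untreated plants, where 0 means no effect and 10 means complete control, taken twelve to sixteen days after application. Treatments went onto soil at planting and onto foliage of 1- to 4-leaf plants, using a surfactant-containing non-phytotoxic solvent.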"}, "cocklebur": {"test_system": "cocklebur", "assay": "Test B pre/postemergence cocklebur", "format": "in vivo, Xanthium strumarium", "conditions": "Preemergence", "how_it_was_run": "as §1"}, "giant foxtail": {"test_system": "giant foxtail", "assay": "Test B pre/postemergence giant foxtail", "format": "in vivo, Setaria faberii", "conditions": "Preemergence", "how_it_was_run": "as §1"}, "rice": {"test_system": "rice", "assay": "Test B flood test rice", "format": "in vivo, Oryza sativa", "how_it_was_run": "(§2)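 Each value is a visual injury score relative to controls, with 10 meaning complete control and 0 no effect. Evaluation took place twelve to sixteen days after the 2-leaf-stage plants were treated and kept in the greenhouse.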"}, "velvetleaf": {"test_system": "velvetleaf", "assay": "Test B pre/postemergence velvetleaf", "format": "in vivo, Abutilon theophrasti", "conditions": "Preemergence", "how_it_was_run": "as §1"}, "crabgrass": {"test_system": "crabgrass", "assay": "Test B pre/postemergence crabgrass", "format": "in vivo, Digitaria sanguinalis", "conditions": "Preemergence", "how_it_was_run": "as §1"}, "sugar beet": {"test_system": "sugar beet", "assay": "Test B pre/postemergence sugar beet", "format": "in vivo, Beta vulgaris", "conditions": "Preemergence", "how_it_was_run": "as §1"}, "blackgrass": {"test_system": "blackgrass", "assay": "Test B pre/postemergence blackgrass", "format": "in vivo, Alopecurus myosuroides", "conditions": "Preemergence", "how_it_was_run": "as §1"}, "morningglory": {"test_system": "morningglory", "assay": "Test B pre/postemergence morningglory", "format": "in vivo, Ipomoea hederacea", "conditions": "Preemergence", "how_it_was_run": "as §1"}, "surinam grass": {"test_system": "surinam grass", "assay": "Test B pre/postemergence surinam grass", "format": "in vivo, Brachiaria decumbens", "conditions": "Preemergence", "how_it_was_run": "as §1"}, "smallflower flatsedge": {"test_system": "smallflower flatsedge", "assay": "Test B flood test smallflower flatsedge", "format": "in vivo, Cyperus difformis", "how_it_was_run": "as §2"}, "wild oat": {"test_system": "wild oat", "assay": "Test B pre/postemergence wild oat", "format": "in vivo, Avena fatua", "conditions": "Preemergence", "how_it_was_run": "as §1"}, "corn": {"test_system": "corn", "assay": "Test B pre/postemergence corn", "format": "in vivo, Zea mays", "conditions": "Preemergence", "how_it_was_run": "as §1"}, "pigweed": {"test_system": "pigweed", "assay": "Test B pre/postemergence pigweed", "format": "in vivo, Amaranthus retroflexus", "conditions": "Preemergence", "how_it_was_run": "as §1"}, "rape": {"test_system": "rape", "assay": "Test B pre/postemergence rape", "format": "in vivo, Brassica napus", "conditions": "Preemergence", "how_it_was_run": "as §1"}, "bedstraw": {"test_system": "bedstraw", "assay": "Test B pre/postemergence bedstraw", "format": "in vivo, Galium aparine", "conditions": "Preemergence", "how_it_was_run": "as §1"}, "duck salad": {"test_system": "duck salad", "assay": "Test B flood test duck salad", "format": "in vivo, Heteranthera limosa", "how_it_was_run": "as §2"}, "bamyardgrass": {"test_system": "bamyardgrass", "assay": "Test B flood test barnyardgrass", "format": "in vivo, Echinochloa crus-galli", "how_it_was_run": "as §2"}, "purple nutsedge": {"test_system": "purple nutsedge", "assay": "Test B pre/postemergence purple nutsedge", "format": "in vivo, Cyperus rotundus", "conditions": "Preemergence", "how_it_was_run": "as §1"}, "wheat": {"test_system": "wheat", "assay": "Test B pre/postemergence wheat", "format": "in vivo, Triticum aestivum", "conditions": "Preemergence", "how_it_was_run": "as §1"}, "maize hybrid P33G26": {"test_system": "maize hybrid P33G26", "assay": "Test G maize injury with safener-treated seed", "conditions": "in vivo", "how_it_was_run": "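Maize hybrid P33G26 seed, treated with dichlormid, fenchlorazole-ethyl or naphthalic anhydride or left untreated, was sown in soil pots, then sprayed pre-emergence with several compound rates at 310 L/ha. Plants grew in a greenhouse (14 h day, about 27/24 °C day/night), with 4–5 replicates. Injury was scored visually against untreated controls 28 days after application.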"}, "[1]": {"conditions": "Rate 125 g/ha, scale of 0 to 10 where 0 is no effect and 10 is complete control"}, "[2]": {"conditions": "Rate 250 g/ha, scale 0 (no effect) to 10 (complete control)"}, "[3]": {"conditions": "Rate 500 g/ha, scale 0 to 10 (0 no effect, 10 complete control)"}, "[4]": {"conditions": "Rate 1000 g/ha, scale 0 to 10 (0 no effect, 10 complete control)"}, "[5]": {"conditions": "Pre-emergence, Rate 62 g/ha, scale 0 to 10, 0 is no effect, 10 is complete control"}, "[6]": {"conditions": "Rate 125 g/ha, Pre-emergence section (flood test species), scale 0 to 10, 0 no effect, 10 complete control"}, "[7]": {"conditions": "Rate 250 g/ha, Pre-emergence (flood test species), scale 0 to 10, 0 is no effect, 10 is complete control"}, "[8]": {"conditions": "Rate 500 g/ha, Pre-emergence section of Table B, 0 to 10 scale (0 no effect, 10 complete control)"}}, "data": [{"molecule": "COC(=O)C(c1ccccc1)n1c(=O)on(C(=O)N(c2ccc(Cl)cc2)C(C)C)c1=O", "note": "(stereo not shown) [Compound 724]", "values": [{"measurement": "Plant response rating, Soybean", "setting": "soybean; [1]", "value": 0}, {"measurement": "Soybean plant response rating", "setting": "soybean; [2]", "value": 0}, {"measurement": "Soybean plant response rating", "setting": "soybean; [3]", "value": 0}, {"measurement": "Plant response rating, Soybean", "setting": "soybean; [4]", "value": 0}, {"measurement": "Plant response rating, Cocklebur", "setting": "cocklebur; [1]", "value": 0}, {"measurement": "Cocklebur plant response rating", "setting": "cocklebur; [2]", "value": 0}, {"measurement": "Cocklebur plant response rating", "setting": "cocklebur; [3]", "value": 0}, {"measurement": "Plant response rating, Cocklebur", "setting": "cocklebur; [4]", "value": 0}, {"measurement": "Plant response rating, Giant foxtail", "setting": "giant foxtail; [1]", "value": 0}, {"measurement": "Giant foxtail plant response rating", "setting": "giant foxtail; [2]", "value": 7}, {"measurement": "Giant foxtail plant response rating", "setting": "giant foxtail; [3]", "value": 9}, {"measurement": "Plant response rating, Giant foxtail", "setting": "giant foxtail; [4]", "value": 10}, {"measurement": "Rice plant response rating", "setting": "rice; [5]", "value": 0}, {"measurement": "Rice plant response rating", "setting": "rice; [6]", "value": 0}, {"measurement": "Rice plant response rating", "setting": "rice; [7]", "value": 0}, {"measurement": "Rice plant response rating", "setting": "rice; [8]", "value": 0}, {"measurement": "Plant response rating, Velvetleaf", "setting": "velvetleaf; [1]", "value": 0}, {"measurement": "Velvetleaf plant response rating", "setting": "velvetleaf; [2]", "value": 0}, {"measurement": "Velvetleaf plant response rating", "setting": "velvetleaf; [3]", "value": 0}, {"measurement": "Plant response rating, Velvetleaf", "setting": "velvetleaf; [4]", "value": 0}, {"measurement": "Plant response rating, Crabgrass", "setting": "crabgrass; [1]", "value": 3}, {"measurement": "Crabgrass plant response rating", "setting": "crabgrass; [2]", "value": 7}, {"measurement": "Crabgrass plant response rating", "setting": "crabgrass; [3]", "value": 7}, {"measurement": "Plant response rating, Crabgrass", "setting": "crabgrass; [4]", "value": 9}, {"measurement": "Plant response rating, Sugarbeets", "setting": "sugar beet; [1]", "value": 0}, {"measurement": "Sugarbeets plant response rating", "setting": "sugar beet; [2]", "value": 0}, {"measurement": "Sugarbeets plant response rating", "setting": "sugar beet; [3]", "value": 0}, {"measurement": "Plant response rating, Sugarbeets", "setting": "sugar beet; [4]", "value": 0}, {"measurement": "Plant response rating, Blackgrass", "setting": "blackgrass; [1]", "value": 0}, {"measurement": "Blackgrass plant response rating", "setting": "blackgrass; [2]", "value": 0}, {"measurement": "Blackgrass plant response rating", "setting": "blackgrass; [3]", "value": 0}, {"measurement": "Plant response rating, Blackgrass", "setting": "blackgrass; [4]", "value": 2}, {"measurement": "Plant response rating, Morningglory", "setting": "morningglory; [1]", "value": 0}, {"measurement": "Morningglory plant response rating", "setting": "morningglory; [2]", "value": 0}, {"measurement": "Morningglory plant response rating", "setting": "morningglory; [3]", "value": 0}, {"measurement": "Plant response rating, Morningglory", "setting": "morningglory; [4]", "value": 0}, {"measurement": "Plant response rating, B. signalgrass", "setting": "surinam grass; [1]", "value": 0}, {"measurement": "B. signalgrass plant response rating", "setting": "surinam grass; [2]", "value": 0}, {"measurement": "B. signalgrass plant response rating", "setting": "surinam grass; [3]", "value": 0}, {"measurement": "Plant response rating, B. signalgrass", "setting": "surinam grass; [4]", "value": 0}, {"measurement": "S. Flatsedge plant response rating", "setting": "smallflower flatsedge; [5]", "value": 0}, {"measurement": "S. Flatsedge plant response rating", "setting": "smallflower flatsedge; [6]", "value": 0}, {"measurement": "S. Flatsedge plant response rating", "setting": "smallflower flatsedge; [7]", "value": 0}, {"measurement": "S. Flatsedge plant response rating", "setting": "smallflower flatsedge; [8]", "value": 0}, {"measurement": "Plant response rating, Wild oats", "setting": "wild oat; [1]", "value": 0}, {"measurement": "Wild oats plant response rating", "setting": "wild oat; [2]", "value": 0}, {"measurement": "Wild oats plant response rating", "setting": "wild oat; [3]", "value": 0}, {"measurement": "Plant response rating, Wild oats", "setting": "wild oat; [4]", "value": 0}, {"measurement": "Plant response rating, Corn", "setting": "corn; [1]", "value": 0}, {"measurement": "Corn plant response rating", "setting": "corn; [2]", "value": 0}, {"measurement": "Corn plant response rating", "setting": "corn; [3]", "value": 0}, {"measurement": "Plant response rating, Corn", "setting": "corn; [4]", "value": 0}, {"measurement": "Plant response rating, Redroot pigweed", "setting": "pigweed; [1]", "value": 0}, {"measurement": "Redroot pigweed plant response rating", "setting": "pigweed; [2]", "value": 0}, {"measurement": "Redroot pigweed plant response rating", "setting": "pigweed; [3]", "value": 0}, {"measurement": "Plant response rating, Redroot pigweed", "setting": "pigweed; [4]", "value": 3}, {"measurement": "Plant response rating, Rape", "setting": "rape; [1]", "value": 0}, {"measurement": "Rape plant response rating", "setting": "rape; [2]", "value": 0}, {"measurement": "Rape plant response rating", "setting": "rape; [3]", "value": 0}, {"measurement": "Plant response rating, Rape", "setting": "rape; [4]", "value": 0}, {"measurement": "Plant response rating, Bedstraw", "setting": "bedstraw; [1]", "value": 0}, {"measurement": "Bedstraw plant response rating", "setting": "bedstraw; [2]", "value": 0}, {"measurement": "Bedstraw plant response rating", "setting": "bedstraw; [3]", "value": 0}, {"measurement": "Plant response rating, Bedstraw", "setting": "bedstraw; [4]", "value": 0}, {"measurement": "Ducksalad plant response rating", "setting": "duck salad; [5]", "value": 0}, {"measurement": "Ducksalad plant response rating", "setting": "duck salad; [6]", "value": 0}, {"measurement": "Ducksalad plant response rating", "setting": "duck salad; [7]", "value": 0}, {"measurement": "Ducksalad plant response rating", "setting": "duck salad; [8]", "value": 0}, {"measurement": "Barnyardgrass plant response rating", "setting": "bamyardgrass; [5]", "value": 0}, {"measurement": "Barnyardgrass plant response rating", "setting": "bamyardgrass; [6]", "value": 0}, {"measurement": "Barnyardgrass plant response rating", "setting": "bamyardgrass; [7]", "value": 0}, {"measurement": "Barnyardgrass plant response rating", "setting": "bamyardgrass; [8]", "value": 0}, {"measurement": "Plant response rating, Nutsedge", "setting": "purple nutsedge; [1]", "value": 0}, {"measurement": "Nutsedge plant response rating", "setting": "purple nutsedge; [2]", "value": 0}, {"measurement": "Nutsedge plant response rating", "setting": "purple nutsedge; [3]", "value": 0}, {"measurement": "Plant response rating, Nutsedge", "setting": "purple nutsedge; [4]", "value": 0}, {"measurement": "Plant response rating, Wheat", "setting": "wheat; [1]", "value": 0}, {"measurement": "Wheat plant response rating", "setting": "wheat; [2]", "value": 0}, {"measurement": "Wheat plant response rating", "setting": "wheat; [3]", "value": 0}, {"measurement": "Plant response rating, Wheat", "setting": "wheat; [4]", "value": 0}]}, {"molecule": "O=C1OC(=O)c2cccc3cccc1c23", "note": "[naphthalic anhydride, reference compound]", "values": [{"measurement": "Effect of safener seed treatment on corn germination", "setting": "maize hybrid P33G26", "value": "severely inhibited corn germination"}, {"measurement": "Safening effect on maize injury", "setting": "maize hybrid P33G26", "value": "safened against the herbicide damage"}]}]}
